The numbers were not newly measured in US20170119791A1, “METHODS AND COMPOSITIONS FOR DERMATOLOGICAL USE COMPRSING BETAMETHASONE AND BIOPOLYMERS” (APEX LABORATORIES PRIVATE LIMITED, priority 2015, published 2017), which cites them from elsewhere.

Like-named read-outs stand apart in the source and are kept apart here.

As for `CCC(=O)OCC(=O)[C@@]1(OC(=O)CC)[C@@H](C)C[C@H]2[C@@H]3CCC4=CC(=O)C=C[C@]4(C)[C@@]3(F)[C@@H](O)C[C@@]21C` [Betamethasone dipropionate, 9-fluoro-11β, 17,21-trihydroxy-16β-methylpregna-1,4-diene-3,20-dione 17,21-dipropionate], the Solubility result (in acetone) was “freely soluble”, the Solubility result (in alcohol) was “sparingly soluble” and the Solubility entry (in water) is recorded as “insoluble”.

`CCCCC(=O)O[C@]1(C(=O)CO)[C@@H](C)C[C@H]2[C@@H]3CCC4=CC(=O)C=C[C@]4(C)[C@@]3(F)[C@@H](O)C[C@@]21C` [Betamethasone valerate, 9-Fluoro-11β, 17,21-trihydroxy-16β-methylpregna-1,4-diene-3,20-dione 17-valerate]: the Solubility result is, setting by setting: (in acetone) “freely soluble”; (in alcohol) “soluble”; (in benzene) “slightly soluble”; (in chloroform) “freely soluble”; (in ether) “slightly soluble”; (in water) “practically insoluble”.
